# According to PMC8619914, “Development of Novel Peptides for the Antimicrobial Combination Therapy against Carbapenem-Resistant Acinetobacter baumannii Infection” (Pharmaceutics, 2021):
# What was measured:
# [1] = tested on: Acinetobacter baumannii (KCCM 40203); assay: microbe, parasite or virus in culture; settings: 16 h
# Source text: (§1) The Gram-negative bacterial strain Escherichia coli (KCTC 1682) and Gram-positive bacterial strain Staphylococcus aureus (KCTC 1621) were purchased from the Korean Collection for Type Cultures (Jeongeup, Korea). Acinetobacter baumannii (KCCM 40203) were purchased from Korea Culture Center of Microorganisms (Seoul, Korea). Additionally, five carbapenem-resistant Acinetobacter baumanii C1–C5 (CRAB C1–C5), which have the OXA-23 gene with carbapenem-resistance were collected from the patients with CRAB bacteremia, who presented symptoms and signs of infection at Korea University Anam Hospital (Seoul, Korea) (IRB registration no. 2020AN0157). The minimum inhibitory concentrations (MIC) of the AMP and antibiotics against the various bacterial strains were assessed using the serial dilution method on Muller–Hinton (MH) media, as described previously. […] Absorbance at 600 nm was measured using a SpectraMAX microplate reader (Molecular Devices, San Jose, CA, USA).
# (§2) Measurement of the minimum inhibitory concentrations (MIC) was conducted to determine the effect of the hydrophobicity of each antimicrobial peptide on its antimicrobial activity. MIC was defined as the minimum concentration that killed more than 99% of bacteria; it was measured against two standard Gram-negative bacteria (E. coli and A. baumanii), five clinically isolated CRAB (C1–C5), and one Gram-positive bacteria (S. aureus).
# CRAB C1 [2] = assay: microbe, parasite or virus in culture; settings: 16 h
# Source text: as §1, §2
# CRAB C2 = assay: microbe, parasite or virus in culture; settings: MH media, 2 × 10^5 CFU·mL^−1, 37 °C, 16 h, absorbance 600 nm
# Source text: as §1, §2
# CRAB C3 = assay: microbe, parasite or virus in culture; settings: MH media, 2 × 10^5 CFU·mL^−1, 37 °C, 16 h, absorbance 600 nm
# Source text: as §1, §2
# CRAB C4 = assay: microbe, parasite or virus in culture; settings: MH media, 2 × 10^5 CFU·mL^−1, 37 °C, 16 h, absorbance 600 nm
# Source text: as §1, §2
# CRAB C5 = assay: microbe, parasite or virus in culture; settings: MH media, 2 × 10^5 CFU·mL^−1, 37 °C, 16 h, absorbance 600 nm
# Source text: as §1, §2
# [3] = tested on: Gram-negative bacterial strains; assay: organism not typed
# Source text: as §1
# Geometric means (GM) were calculated to compare the relative antimicrobial activities of the analogs against Gram-negative bacteria. […] Next, the antibacterial mechanisms of peptides were investigated.
# intact CRAB C1 = assay: Membrane depolarization, diSC3-5, intact cells; format: cell-based, carbapenem-resistant Acinetobacter baumannii; settings: peptide 4 μg·mL^−1, 100% = 1% triton X-100
# Method: The membrane depolarization activity of each AMPs at varying concentrations (1–16 μg·mL^−^1) against CRAB C1 intact cells were measured using 3,3′-dipropylthiadicarbocyanine iodide (diSC3-5). CRAB C1 was washed two times in washing buffer (5 mM HEPES, 20 mM glucose, pH 7.4), the experiment buffer was changed (5 mM HEPES, 20 mM glucose, 0.1 M KCl, pH 7.4), and diSC3-5 dye was added. As a control, 100% depolarization was obtained by treating CRAB C1 with 1% triton X-100 [33]. Spheroplast cells were prepared by the osmotic shock, as previously described. […] The corresponding fluorescent were measured using RF-6000PC fluorescent spectrophotometer (Shimadzu Scientific Instruments, Kyoto, Japan).
# Figure 3 CRAB C1 membrane destruction caused by PapMA analogs. The concentration dependent depolarization of (A) intact CRAB C1 and its (B) spheroplast induced by PapMA and its analogs, determined using the membrane potential-sensitive fluorescent dye diSC3-5. Dye release was monitored by measuring fluorescence, at an excitation wavelength of 654 nm and an emission wavelength of 670 nm.
# HEK-293 cells = assay: Cytotoxicity, WST-8 Cell Proliferation Assay; format: cell-based, human; settings: at its MIC, 24 h and 48 h
# Method: (§3) Human embryonic kidney (HEK)-293 cells, purchased from Korean cell line bank (Seoul, Korea) were cultured in Dulbecco’s modified Eagle’s medium (DMEM) (Welgene, Gyeong-san, Korea) with 10% fetal bovine serum, 1% penicillin-streptomycin at 37 °C in a humidified 5% CO2 incubator as described previously. The cytotoxicity of the six PapMA peptides and melittin was determined using WST-8 Cell Proliferation Assay Kit (Biomax Co, Ltd., Seoul, Korea), according to the manufacturer’s instructions. […] The absorbance was measured at 450 nm using a SpectraMAX microplate reader (Molecular Devices).
# Figure 4 Cytotoxicity of PapMA analogs. (A) Cytotoxicity of PapMA and its analogs against HEK-293 cell. […] (B) Hemolysis activity of PapMA analogs against sRBC. The peptide was serially diluted and incubated with sRBC for 1 h with melittin as a control. Statistical analysis was performed using two-way ANOVA with Dunnett’s comparison test. The values are expressed as the mean ± SEM of three independent experiments and are statistically significant at ** p < 0.01; and *** p < 0.001. ns, not significant.
# HaCaT cells = assay: Cytotoxicity, WST-8 Cell Proliferation Assay; format: cell-based, human; settings: at its MIC, 24 h and 48 h
# Method: as §3
# Figure 10 Cytotoxicity of PapMA-3 (A) Cytotoxicity of PapMA-3 against HEK-293 cells at 24 h and 48 h. (B) Cytotoxicity of PapMA-3 against HaCaT cell at 24 h and 48 h. Statistical analysis was performed using two-way ANOVA with Dunnett’s comparison test. The values are expressed as the mean ± SEM of three independent experiments and are statistically significant at * p < 0.05; *** p < 0.001; ns, not significant.
# A. baumannii = settings: 50% human serum in MH medium, 16 h, 37 °C; measure of serum stability
# Method: (§4) Antibacterial activity of PapMA-3 in combination with imipenem was measured against CRAB C1 in the presence of 50% human serum. The treated cells were incubated for 16 h at 37 °C, and the absorbance at 600 nm was measured using a SpectraMAX microplate reader (Molecular Devices).
# CRAB C1 [4] = tested on: CRAB C1
# Method: as §4
# [5] = MH media, 2 × 10^5 CFU·mL^−1, 37 °C, absorbance 600 nm
smiles,measurement,setting,value
CC[C@H](C)[C@H](NC(=O)CN)C(=O)NCC(=O)N[C@@H](C)C(=O)N[C@H](C(=O)N[C@@H](CC(C)C)C(=O)N[C@@H](CCCCN)C(=O)N[C@H](C(=O)N[C@@H](CC(C)C)C(=O)N[C@H](C(=O)N[C@H](C(=O)NCC(=O)N[C@@H](CC(C)C)C(=O)N1CCC[C@H]1C(=O)N[C@@H](C)C(=O)N[C@@H](CC(C)C)C(=O)N[C@H](C(=O)N[C@@H](CO)C(=O)N[C@@H](Cc1c[nH]c2ccccc12)C(=O)N[C@H](C(=O)N[C@@H](CCCCN)C(=O)N[C@@H](CCCNC(=N)N)C(=O)N[C@@H](CCCCN)C(=O)N[C@@H](CCCNC(=N)N)C(=O)N[C@@H](CCC(N)=O)C(=O)N[C@@H](CCC(N)=O)C(N)=O)[C@@H](C)CC)[C@@H](C)CC)[C@@H](C)O)[C@@H](C)O)C(C)C)C(C)C [melittin],"Minimum Inhibitory Concentration, A. baumannii, MH Media","[1]; MH media without serum, 37 °C",16 µg/mL
same,"Minimum Inhibitory Concentration, A. baumanii",[1]; [5],16 µg/mL
same,"Minimum Inhibitory Concentration, CRAB C1, MH Media","CRAB C1 [2]; MH media without serum, 37 °C",16 µg/mL
same,"Minimum Inhibitory Concentration, CRAB C1",CRAB C1 [2]; [5],16 µg/mL
same,"Minimum Inhibitory Concentration, CRAB C2",CRAB C2,16 µg/mL
same,"Minimum Inhibitory Concentration, CRAB C3",CRAB C3,16 µg/mL
same,"Minimum Inhibitory Concentration, CRAB C4",CRAB C4,8 µg/mL
same,"Minimum Inhibitory Concentration, CRAB C5",CRAB C5,16 µg/mL
same,GM (mean MIC of Gram-negative bacterial strains),[3],14 µg/mL
same,depolarization of intact CRAB C1,intact CRAB C1,86.4%
same,"toxicity, HEK-293",HEK-293 cells,severe toxicity
same,"toxicity, HaCaT",HaCaT cells,severe toxicity
same,"Minimum Inhibitory Concentration, A. baumannii, + Serum (50%)",A. baumannii,128 µg/mL
same,change of antibacterial activity in the presence of 50% human serum,"CRAB C1 [4]; 50% human serum in MH media versus MH media, E. coli, A. baumannii, CRAB C1",lost antibacterial activity considerably
same,"Minimum Inhibitory Concentration, CRAB C1, + Serum (50%)","CRAB C1 [4]; 50% human serum in MH medium, 16 h, 37 °C, measure of serum stability",256 µg/mL
